For this experiment, the target named is T1, β-catenin/BCL9 PPI (Homo sapiens, UniProt P35222).
T1 construct: Wild-type full-length β-catenin were cloned into a pET-28b vector carrying a C-terminal 6×histidine; made in house; host or cells: Escherichia coli BL21 DE3 (β-catenin); BCL9 peptide chemically synthesized
T1 sequence (P35222 1-781): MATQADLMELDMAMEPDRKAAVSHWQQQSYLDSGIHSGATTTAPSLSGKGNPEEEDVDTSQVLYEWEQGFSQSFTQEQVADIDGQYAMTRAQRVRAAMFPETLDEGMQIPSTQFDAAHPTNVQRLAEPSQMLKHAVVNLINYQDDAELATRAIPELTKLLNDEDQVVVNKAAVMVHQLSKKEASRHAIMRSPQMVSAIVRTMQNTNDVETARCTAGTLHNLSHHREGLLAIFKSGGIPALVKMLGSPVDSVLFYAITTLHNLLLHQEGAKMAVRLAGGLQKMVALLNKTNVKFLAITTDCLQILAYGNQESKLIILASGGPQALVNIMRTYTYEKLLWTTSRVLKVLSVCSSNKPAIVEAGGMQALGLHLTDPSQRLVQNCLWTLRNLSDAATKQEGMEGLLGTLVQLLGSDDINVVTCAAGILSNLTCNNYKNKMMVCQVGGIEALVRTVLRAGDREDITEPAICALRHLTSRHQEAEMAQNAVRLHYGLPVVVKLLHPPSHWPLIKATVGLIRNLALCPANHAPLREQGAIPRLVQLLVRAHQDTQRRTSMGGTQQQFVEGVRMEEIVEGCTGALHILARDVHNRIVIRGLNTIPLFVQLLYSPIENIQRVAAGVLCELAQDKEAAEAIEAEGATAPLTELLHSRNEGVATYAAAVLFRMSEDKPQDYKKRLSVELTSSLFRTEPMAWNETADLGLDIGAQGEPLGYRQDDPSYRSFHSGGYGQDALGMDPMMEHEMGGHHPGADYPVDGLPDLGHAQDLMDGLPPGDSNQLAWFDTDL
Kind of experiment: AlphaScreen competitive inhibition assay of the β-catenin/BCL9 PPI. It is filed as binding. Particulars: mean ± SD, triplicate, Ki derived from IC50 (Nikolovska-Coleska method). As for the experimental part: AlphaScreen competitive inhibition assays. For the competitive inhibition assays of the β-catenin/BCL9 PPI, the negative control (equivalent to 0% inhibition) refers to 5.0 nM of biotinylated BCL9, 40 nM of His6-tagged β-catenin, and 10 μg/mL of donor and acceptor beads in a final volume of 25 μL assay buffer, but no tested inhibitor present. The positive control (equivalent to 100% inhibition) refers to 5.0 nM of biotinylated BCL9 and 10 μg/mL of donor and acceptor beads in a final volume of 25 μL assay buffer.
For the β-catenin/BCL9 assay, 5 nM of biotinylated BCL9 and 40 nM of His6-tagged β-catenin were incubated in assay buffer at 4° C. for 30 min. Different concentrations of the tested inhibitor were added and incubated in 20 μL assay buffer at 4° C. for another 1 h. All of the above assay plates were covered and gently mixed on an orbital shaker. The donor and acceptor beads were then added to the plates to a final concentration of 10 μg/mL in 25 μL assay buffer. The mixture was incubated for 1 h at 4° C. before detection. The IC50 value was determined by nonlinear least-square analysis of GraphPad Prism 5.0. The Ki values were derived from the IC50 values using a method reported by Nikolovska-Coleska et al (Nikolovska-Coleska, Z.; Wang, R.; Fang, X.; Pan, H.; Tomita, Y.; Li, P.; Roller, P. P.; Krajewski, K.; Saito, N. G.; Stuckey, J. A.; Wang, S. Development and optimization of a binding assay for the XIAP BIR3 domain using fluorescence polarization. Anal. Biochem. 2004, 332, 261-273). The assays were conducted under the conditions required by Nikolovska-Coleska et al.'s equation for determining the Ki values. All of the experiments were performed in triplicate. The results were expressed as mean±standard deviation.

Where [1] appears, read: Example 2 compounds, experiment 1, read-out: Ki (μM ± SD) experiment 1.
Where [2] appears, read: Example 2 compounds, experiment 2, read-out: Ki (μM ± SD) experiment 2.
[3] abbreviates: Example 1 compounds, experiment 3, read-out: Ki (μM ± SD) experiment 3.
Where [4] appears, read: Example 1 compounds, experiment 4, read-out: Ki (μM ± SD) experiment 4.

Each structure is given as a SMILES string. Structures can show the parent of a compound that is named as a salt. Where two headings read alike, the source gives them in different places.

A word on the Ki: it is a measure of affinity in units of concentration, obtained from inhibition or displacement. For `O=C(c1ccc(O[C@H]2CCNC2)c(C2CCCCC2)c1)N1CCC(Oc2cc(F)cc(N3CCNCC3)c2)CC1` [Compound 1, (S)-(3-cyclohexyl-4-(pyrrolidin-3-yloxy)phenyl) (4-(3-fluoro-5-(piperazin-1-yl)phenoxy)piperidin-1-yl) methanone dihydrochloride], the Ki is, setting by setting: under setting [1], 12.3 ± 1.74 µM; under setting [2], 25.4 ± 2.43 µM.
In the same order, the values of `O=C(c1ccc(O[C@H]2CCNC2)c(C2CCCCC2)c1)N1CCC(Oc2cc(F)cc(N3CCNCC3=O)c2)CC1` [Compound 2, (S)-1-(3-((1-(3-cyclohexyl-4-(pyrrolidin-3-yloxy)benzoyl)piperidin-4-yl)oxy)-5-fluorophenyl) piperazin-2-one dihydrochloride] are 496 ± 39.7 µM and more than 90 µM.
In the same order, the values of `NCc1cn(Cc2cc(F)cc(OC3CCN(C(=O)c4ccc(O[C@H]5CCNC5)c(C5CCCCC5)c4)CC3)c2)nn1` [Compound 3, (S)-(4-(3-((4-(aminomethyl)-1H-1,2,3-triazol-1-yl)methyl)-5-fluorophenoxy)piperidin-1-yl) (3-cyclohexyl-4-(pyrrolidin-3-yloxy)phenyl) methanone dihydrochloride] are 132 ± 9.82 µM and 124 ± 13.4 µM.
As for `CN(C)Cc1cn(Cc2cc(F)cc(OC3CCN(C(=O)c4ccc(O[C@H]5CCNC5)c(C5CCCCC5)c4)CC3)c2)nn1` [Compound 4, (S)-(3-cyclohexyl-4-(pyrrolidin-3-yloxy)phenyl) (4-(3-((4-((dimethylamino)methyl)-1H-1,2,3-triazol-1-yl)methyl)-5-fluorophenoxy)piperidin-1-yl) methanone dihydrochloride], under setting [1], the Ki worked out at 41.4 ± 4.33 µM.
For `NCCC(=O)Nc1cc(F)cc(OC2CCN(C(=O)c3ccc(OC4CCNC4)c(C4CCCCC4)c3)CC2)c1` (stereo not drawn) [Compound 5, 3-amino-N-(3-((1-(3-cyclohexyl-4-(pyrrolidin-3-yloxy)benzoyl)piperidin-4-yl)oxy)-5-fluorophenyl)propanamide dihydrochloride], the Ki is 24.4 ± 3.18 µM under setting [1] and 25.9 ± 2.45 µM under setting [2].
The matching figures for `NCCCC(=O)Nc1cc(F)cc(OC2CCN(C(=O)c3ccc(OC4CCNC4)c(C4CCCCC4)c3)CC2)c1` (stereo not drawn) [Compound 6, 4-amino-N-(3-((1-(3-cyclohexyl-4-(pyrrolidin-3-yloxy)benzoyl)piperidin-4-yl)oxy)-5-fluorophenyl)butanamide dihydrochloride]: 56.9 ± 8.34 µM and 24.2 ± 2.7 µM.
Consider `NCCC(=O)NCc1cc(F)cc(OC2CCN(C(=O)c3ccc(O[C@H]4CCNC4)c(C4CCCCC4)c3)CC2)c1` [Compound 7, 3-Amino-N-(3-((1-(3-cyclohexyl-4-(pyrrolidin-3-yloxy)benzoyl)piperidin-4-yl)oxy)-5-fluorobenzyl) propanamide dihydrochloride], for which the Ki worked out at 84.7 ± 11.8 µM under setting [1] and 125 ± 13.2 µM under setting [2].
With `CC(C)(CN)C(=O)NCc1cc(F)cc(OC2CCN(C(=O)c3ccc(O[C@H]4CCNC4)c(C4CCCCC4)c3)CC2)c1` [Compound 8, (S)-3-amino-N-(3-((1-(3-cyclohexyl-4-(pyrrolidin-3-yloxy)benzoyl)piperidin-4-yl)oxy)-5-fluorobenzyl)-2,2-dimethylpropanamide dihydrochloride], the Ki under setting [1] came out at 162 ± 19.6 µM and the Ki under setting [2] was found to be 162 ± 17.4 µM.
For `CNC(=O)C1CN(C(=O)c2cc(F)cc(NC(C)=O)c2)CCN1C(=O)c1ccc(O[C@H]2CCNC2)c(C2CCCCC2)c1` (stereo partly drawn) [Compound 17, 4-(3-Acetamido-5-fluorobenzoyl)-1-(3-cyclohexyl-4-(((S)-pyrrolidin-3-yl)oxy)benzoyl)-N-methylpiperazine-2-carboxamide trifluoroacetate], the Ki is, setting by setting: under setting [3], 200 ± 20 µM; under setting [4], 140 ± 17 µM.
The matching figures for `CC(=O)Nc1cc(F)cc(C(=O)N2CCN(C(=O)c3ccc(O[C@H]4CCNC4)c(C4CCCCC4)c3)C(C(=O)N(C)C)C2)c1` (stereo partly drawn) [Compound 18, 4-(3-Acetamido-5-fluorobenzoyl)-1-(3-cyclohexyl-4-(((S)-pyrrolidin-3-yl)oxy)benzoyl)-N,N-dimethylpiperazine-2-carboxamide trifluoroacetate]: 73 µM and 150 ± 17 µM.
In the same order, the values of `CCNC(=O)C1CN(C(=O)c2cc(F)cc(NC(C)=O)c2)CCN1C(=O)c1ccc(O[C@H]2CCNC2)c(C2CCCCC2)c1` (stereo partly drawn) [Compound 19, 4-(3-Acetamido-5-fluorobenzoyl)-1-(3-cyclohexyl-4-(((S)-pyrrolidin-3-yl)oxy)benzoyl)-N-ethylpiperazine-2-carboxamide trifluoroacetate] are 110 ± 16 µM and 240 ± 27 µM.
Consider `CCN(C)C(=O)C1CN(C(=O)c2cc(F)cc(NC(C)=O)c2)CCN1C(=O)c1ccc(O[C@H]2CCNC2)c(C2CCCCC2)c1` (stereo partly drawn) [Compound 20, 4-(3-Acetamido-5-fluorobenzoyl)-1-(3-cyclohexyl-4-(((S)-pyrrolidin-3-yl)oxy)benzoyl)-N-ethyl-N-methylpiperazine-2-carboxamide trifluoroacetate], for which the Ki reads like this: under setting [3], 190 ± 18 µM; under setting [4], 170 ± 29 µM.
As to `CC(=O)Nc1cc(F)cc(C(=O)N2CCN(C(=O)c3ccc(O[C@H]4CCNC4)c(C4CCCCC4)c3)C(C(=O)NC(C)C)C2)c1` (stereo partly drawn) [Compound 21, 4-(3-Acetamido-5-fluorobenzoyl)-1-(3-cyclohexyl-4-(((S)-pyrrolidin-3-yl)oxy)benzoyl)-N-isopropylpiperazine-2-carboxamide trifluoroacetate], the Ki came to 410 ± 41 µM under setting [3] and 700 ± 73 µM under setting [4].
With `CC(=O)Nc1cc(F)cc(C(=O)N2CCN(C(=O)c3ccc(O[C@H]4CCNC4)c(C4CCCCC4)c3)C(C(=O)N(C)C(C)C)C2)c1` (stereo partly drawn) [Compound 22, 4-(3-Acetamido-5-fluorobenzoyl)-1-(3-cyclohexyl-4-(((S)-pyrrolidin-3-yl)oxy)benzoyl)-N-isopropyl-N-methylpiperazine-2-carboxamide trifluoroacetate], the inhibitory constant (Ki) is more than 1000 µM under setting [3] and more than 1000 µM under setting [4].
`CC(=O)Nc1cc(F)cc(C(=O)N2CCN(C(=O)c3ccc(O[C@H]4CCNC4)c(C4CCCCC4)c3)C(C(=O)NCC(C)C)C2)c1` (stereo partly drawn) [Compound 23, 4-(3-Acetamido-5-fluorobenzoyl)-1-(3-cyclohexyl-4-(((S)-pyrrolidin-3-yl)oxy)benzoyl)-N-isobutylpiperazine-2-carboxamide trifluoroacetate]: the Ki under setting [3] was more than 1000 µM and the Ki under setting [4] was more than 1000 µM.
In the case of `CC(=O)Nc1cc(F)cc(C(=O)N2CCN(C(=O)c3ccc(O[C@H]4CCNC4)c(C4CCCCC4)c3)C(C(=O)NCCC(C)C)C2)c1` (stereo partly drawn) [Compound 24, 4-(3-Acetamido-5-fluorobenzoyl)-1-(3-cyclohexyl-4-(((S)-pyrrolidin-3-yl)oxy)benzoyl)-N-isopentylpiperazine-2-carboxamide trifluoroacetate], the Ki is, setting by setting: under setting [3], 700 ± 130 µM; under setting [4], 540 ± 71 µM.
In the same order, the values of `CC(=O)Nc1cc(F)cc(C(=O)N2CCN(C(=O)c3ccc(O[C@H]4CCNC4)c(C4CCCCC4)c3)C(C(=O)NC3CCCCC3)C2)c1` (stereo partly drawn) [Compound 25, 4-(3-Acetamido-5-fluorobenzoyl)-N-cyclohexyl-1-(3-cyclohexyl-4-(((S)-pyrrolidin-3-yl)oxy)benzoyl) piperazine-2-carboxamide trifluoroacetate] are 390 ± 78 µM and more than 1000 µM.

The record behind these values is patent US12600710B2, “Beta-catenin and b-cell lymphoma 9 (BCL9) inhibitors” (H. LEE MOFFITT CANCER CENTER AND RESEARCH INSTITUTE, INC., priority 2018, dated 2026).
